Test results reported in patent publication US5977119A, “Trisubstituted thioxanthines” (Euro-Celtique, S.A., priority 1997, dated 1999).
Values belong to the compound of their own block, whether it stands above or below them.

Assays:
[1] = test system: bronchial and coronary dilation; settings: in words; cited from earlier work
[2] = test system: Type IV PDE isolated from bovine tracheal smooth muscle (PDE IV); test: Type IV PDE activity (hydrolysis of [^3 H]-cyclic AMP); assay type: biochemical; settings: cyclic AMP 0.2 mM, 2.5% dimethyl sulfoxide, * = disubstituted analog
Source text: In addition, the PDE IV inhibitory compounds of the present invention may be examined for their PDE IV inhibitory effects via the techniques set forth in the following examples, wherein the ability of the compounds to inhibit PDE IV isolated from bovine tracheal smooth muscle is set forth.
The Type IV PDE is isolated from bovine tracheal smooth muscle using a procedure similar to that previously described by Silver, P. J. et al., Eur. J. Pharmacol. 150:85,1988.(1). Briefly, smooth muscle from bovine trachea is minced and homogenized using a polytron in 10 volumes of an extraction buffer containing 10 mM Tris-acetate (pH 7.5), 2 mM magnesium chloride, 1 mM dithiothreitol and 2,000 units/ml of aprotinin. This and all subsequent procedures are performed at 0-4° C. The homogenate is sonicated and then centrifuged at 48,000×g for 30 minutes. The resulting supernatant is applied to a DEAE Trisacryl M column previously equilibrated with sodium acetate and dithiothreitol. After applications of the sample, the column is washed with sodium acetate/ dithiothreitol, after which the different forms of PDE are eluted from the column using a linear Tris-HCl/NaCl gradient. Fractions containing Type IV PDE are collected, dialyzed and concentrated to 14% of the original volume. The concentrated fractions are diluted to 50% with ethylene glycol and stored at -20° C.
Enzyme activity is assessed by measuring the hydrolysis of [^3 H]-cyclic AMP, as described by Thompson, W. J. et al., Adv. Cyclic Nucleotide Res. 10:69, 1979. The cyclic AMP concentration used in this assay is 0.2 mM, which approximates the Km value. Protein concentration is adjusted to ensure that no more than 15% of the available substrate is hydrolyzed during the incubation period.
All test compounds are dissolved in dimethyl sulfoxide (final concentration of 2.5%). This concentration of dimethyl sulfoxide inhibits enzyme activity by approximately 10%.

[3] = test system: neutrophils and eosinophils; settings: in-vitro, in words; cited from earlier work
[4] = test system: lymphocytes; settings: in-vitro, in words; cited from earlier work
[5] = test system: mast cells, basophils, monocytes and eosinophils; settings: in-vitro, in words; cited from earlier work
[6] = test system: PDE IV; settings: in words, background; cited from earlier work
[7] = test system: PDE III; settings: in words, background; cited from earlier work
[8] = in words; cited from earlier work

Structure (SMILES): Cc1nc2c([nH]1)c(=S)n(C)c(=O)n2C [1,3,8-trimethyl-6-thioxanthine]
- bronchial and coronary dilator activity [1]: having bronchial and coronary dilator activity

Structure (SMILES): CCc1nc2c([nH]1)c(=S)n(C)c(=O)n2C [1,3-dimethyl-8-ethyl-6-thioxanthine]
- bronchial and coronary dilator activity [1]: having bronchial and coronary dilator activity

Structure (SMILES): CCCn1c(=S)c2[nH]c(C3CC3)nc2n(CCC)c1=O [8-Cyclopropyl-1,3-dipropyl-6-thioxanthine]
- IC50 [2]: 2.97 µM

Structure (SMILES): CCCCOc1cc(CC2CNC(=O)N2)ccc1OC (stereo not shown) [Ro-201724]
- inhibition of respiratory burst, chemotaxis and degranulation [3]: shown to inhibit
- inhibition of mitogen-dependent growth and differentiation [4]: shown to inhibit
- inhibition of mediator synthesis/release [5]: shown to inhibit

Structure (SMILES): COc1ccc(C2CNC(=O)C2)cc1OC1CCCC1 (stereo not shown) [Rolipram]
- inhibition of respiratory burst, chemotaxis and degranulation [3]: shown to inhibit
- inhibition of mitogen-dependent growth and differentiation [4]: shown to inhibit
- inhibition of mediator synthesis/release [5]: shown to inhibit
- PDE IV inhibition [6]: selectively inhibit the PDE IV enzyme

Structure (SMILES): Cn1c(=O)c2[nH]cnc2n(C)c1=O [Theophylline]
- PDE III inhibition [7]: inhibits both PDE III and PDE IV
- PDE IV inhibition [6]: inhibits both PDE III and PDE IV
- therapeutic index [8]: narrow therapeutic index

Further lines, results first:

- IC50 [2]: 1.2 µM
Structure (SMILES): CCn1c(=S)c2[nH]c(C(C)C)nc2n(CC)c1=O [1,3-diethyl-8-isopropyl-6-thioxanthine, 1,3-Diethyl-8-isopropyl-6-thioxanthine]

- IC50 [2]: 1 µM
Structure (SMILES): CCn1c(=O)n(C)c(=S)c2[nH]c(C(C)C)nc21 [3-ethyl-1-methyl-8-isopropyl-6-thioxanthine]

- IC50 [2]: 4.6 µM
Structure (SMILES): CCn1c(=O)[nH]c(=S)c2[nH]c(C(C)C)nc21 [3-ethyl-8-isopropyl-6-thioxanthine]

- IC50 [2]: 18.4 µM
Structure (SMILES): CCCn1c(=O)[nH]c(=S)c2[nH]c(CC)nc21 [3-propyl-8-ethyl-6-thioxanthine]

- IC50 [2]: 1.18 µM
Structure (SMILES): CCC(C)Cn1c(=O)n(CC)c(=S)c2[nH]c(C3CC3)nc21 (stereo not shown) [8-Cyclopropyl-1-ethyl-3-(2-methyl-butyl)-6-thioxanthine]

- IC50 [2]: 3.83 µM
Structure (SMILES): CCC(C)Cn1c(=O)[nH]c(=S)c2[nH]c(C3CC3)nc21 (stereo not shown) [8-cyclopropyl-3-(2-methyl-butyl)-6-thioxanthine]

- IC50 [2]: 4.47 µM
Structure (SMILES): CCCn1c(=O)[nH]c(=S)c2[nH]c(C3CC3)nc21 [8-cyclopropyl-3-propyl-6-thioxanthine]

- IC50 [2]: 1.67 µM
Structure (SMILES): CCCn1c(=S)c2[nH]c(C(C)C)nc2n(CCC)c1=O [8-isopropyl-1,3-dipropyl-6-thioxanthine, 1,3-Dipropyl-8-isopropyl-6-thioxanthine]

- IC50 [2]: 3.3 µM
Structure (SMILES): CCCn1c(=O)[nH]c(=S)c2[nH]c(C(C)C)nc21 [8-isopropyl-3-propyl-6-thioxanthine]
